Source: patent US12653809B2, “Urea, amide, and substituted heteroaryl compounds for CBL-B inhibition” (Nurix Therapeutics, Inc., priority 2019, dated 2026)
Where two headings read alike, the source gives them in different places.

Target: T1, Cbl-b (truncated variant, UniProt number Q13191) (Homo sapiens, UniProt Q13191)
T1 construct: made in house
Assay: Cbl-b activity assay (TR-FRET, interaction of Cbl-b with UbcH5B-Ub)
Type: biochemical

[1] = high conditions: 100 mM NaCl, 60 nM Src kinase, 12 nM Cbl-b, read-out: Cbl-b activity IC50
[2] = Biological Example 1A, low or high conditions not stated, read-out: IC50 values in the Cbl-b inhibition assay of Biological Example 1A

T1 sequence (Q13191 36-427): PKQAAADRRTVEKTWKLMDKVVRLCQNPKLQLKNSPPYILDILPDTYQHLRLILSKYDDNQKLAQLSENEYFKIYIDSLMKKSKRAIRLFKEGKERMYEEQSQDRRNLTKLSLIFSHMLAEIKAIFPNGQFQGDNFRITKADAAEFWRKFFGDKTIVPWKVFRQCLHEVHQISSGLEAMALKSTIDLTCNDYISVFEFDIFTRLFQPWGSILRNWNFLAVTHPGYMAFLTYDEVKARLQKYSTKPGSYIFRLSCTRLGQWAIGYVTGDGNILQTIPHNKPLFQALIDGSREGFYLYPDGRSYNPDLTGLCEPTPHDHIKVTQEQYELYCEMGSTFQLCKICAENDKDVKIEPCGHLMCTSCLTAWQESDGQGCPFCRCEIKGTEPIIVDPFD

SMILES | IC50 [1] [nM] | IC50 [2] [nM]
COc1cccc(-c2cn(-c3cccc([C@H](C)Sc4nncn4C)c3)nn2)c1 [Example 77, (S)-4-(3-methoxyphenyl)-1-(3-(1-((4-methyl-4H-1,2,4-triazol-3-yl)thio)ethyl)phenyl)-1H-1,2,3-triazole] | 1000 to 5000 | 
CNC(=O)c1ccc(-c2cnn(-c3cccc([C@H](C)Sc4nncn4C)c3)n2)cc1 [Example 82, (S)—N-methyl-4-(2-(3-(1-(4-methyl-4H-1,2,4-triazol-3-ylthio)ethyl)phenyl)-2H-1,2,3-triazol-4-yl)benzamide] | 1000 to 5000 | 1000 to 5000
C[C@H](Sc1nncn1C)c1cccc(-n2ncc(-c3ccc(CO)cc3)n2)c1 [Example 84, (S)-(4-(2-(3-(1-(4-methyl-4H-1,2,4-triazol-3-ylthio)ethyl)phenyl)-2H-1,2,3-triazol-4-yl)phenyl)methanol] | 1000 to 5000 | 1000 to 5000
C[C@H](Sc1nncn1C)c1cccc(-n2cc(-c3ccc(CO)cc3)nn2)c1 [Example 85, (S)-(4-(1-(3-(1-(4-methyl-4H-1,2,4-triazol-3-ylthio)ethyl)phenyl)-1H-1,2,3-triazol-4-yl)phenyl)methanol] | ≥ 5000 | ≥ 5000
C[C@H](Sc1nncn1C)c1cccc(-n2ncc(-c3ccc(C(N)=O)cc3)n2)c1 [Example 86, (S)-4-(2-(3-(1-(4-methyl-4H-1,2,4-triazol-3-ylthio)ethyl)phenyl)-2H-1,2,3-triazol-4-yl)benzamide] | 1000 to 5000 | 1000 to 5000
C[C@H](Sc1nncn1C)c1cccc(-n2cc(-c3ccc(C(N)=O)cc3)nn2)c1 [Example 87, (S)-4-(1-(3-(1-(4-methyl-4H-1,2,4-triazol-3-ylthio)ethyl)phenyl)-1H-1,2,3-triazol-4-yl)benzamide] | 1000 to 5000 | 1000 to 5000
C[C@H](Sc1nncn1C)c1cccc(-n2ncc(-c3ccc(C#N)cc3)n2)c1 [Example 88, (S)-4-(2-(3-(1-(4-methyl-4H-1,2,4-triazol-3-ylthio)ethyl)phenyl)-2H-1,2,3-triazol-4-yl)benzonitrile] | 100 to 1000 | 100 to 1000
C[C@H](Sc1nncn1C)c1cccc(-n2ncc(-c3cccc(C(=O)O)c3)n2)c1 [Example 90, (S)-3-(2-(3-(1-(4-methyl-4H-1,2,4-triazol-3-ylthio)ethyl)phenyl)-2H-1,2,3-triazol-4-yl)benzoic acid] | 1000 to 5000 | 1000 to 5000
C[C@H](Sc1nncn1C)c1cccc(-n2cc(-c3cccc(C(=O)O)c3)nn2)c1 [Example 91, (S)-3-(1-(3-(1-(4-methyl-4H-1,2,4-triazol-3-ylthio)ethyl)phenyl)-1H-1,2,3-triazol-4-yl)benzoic acid] | ≥ 5000 | ≥ 5000
C[C@H](Sc1nncn1C)c1cccc(-n2cc(-c3cccc(C(N)=O)c3)nn2)c1 [Example 96, (S)-3-(1-(3-(1-(4-methyl-4H-1,2,4-triazol-3-ylthio)ethyl)phenyl)-1H-1,2,3-triazol-4-yl)benzamide] | 1000 to 5000 | 1000 to 5000
C[C@H](Sc1nncn1C)c1cccc(-n2ncc(-c3cccc(C#N)c3)n2)c1 [Example 97, (S)-3-(2-(3-(1-(4-methyl-4H-1,2,4-triazol-3-ylthio)ethyl)phenyl)-2H-1,2,3-triazol-4-yl)benzonitrile] | 1000 to 5000 | 1000 to 5000
C[C@H](Sc1nncn1C)c1cccc(-n2cc(-c3cccc(C#N)c3)nn2)c1 [Example 98, (S)-3-(1-(3-(1-(4-methyl-4H-1,2,4-triazol-3-ylthio)ethyl)phenyl)-1H-1,2,3-triazol-4-yl)benzonitrile] | ≥ 5000 | ≥ 5000
C[C@H](Sc1nncn1C)c1cccc(-n2ncc(-c3ccccc3)n2)c1 [Example 99, (S)-2-(3-(1-((4-methyl-4H-1,2,4-triazol-3-yl)thio)ethyl)phenyl)-4-phenyl-2H-1,2,3-triazole] | 100 to 1000 | 100 to 1000
C[C@H](Sc1nncn1C)c1cccc(-c2cc(-c3ccccc3)n[nH]2)c1 [Example 102, (S)-4-methyl-3-((1-(3-(3-phenyl-1H-pyrazol-5-yl)phenyl)ethyl)thio)-4H-1,2,4-triazole] | 100 to 1000 | 100 to 1000
C[C@@H](Sc1nncn1C)c1cccc(-c2cc(-c3ccccc3)n[nH]2)c1 [Example 103, (R)-4-methyl-3-((1-(3-(3-phenyl-1H-pyrazol-5-yl)phenyl)ethyl)thio)-4H-1,2,4-triazole] | ≥ 5000 | ≥ 5000
C[C@H](Cc1nncn1C)c1cccc(-c2cc(-c3ccccn3)n[nH]2)c1 [Example 105, (R)-2-(5-(3-(1-(4-methyl-4H-1,2,4-triazol-3-yl)propan-2-yl)phenyl)-1H-pyrazol-3-yl)pyridine] | 100 to 1000 | 
C[C@H](Cc1nncn1C)c1cccc(-c2cc(-c3ncccn3)n[nH]2)c1 [Example 106, (R)-2-(3-(3-(1-(4-methyl-4H-1,2,4-triazol-3-yl)propan-2-yl)phenyl)-1H-pyrazol-5-yl) pyrimidine] | 100 to 1000 | 
C[C@@H](Sc1nncn1C)c1cccc(-c2n[nH]c3ccccc23)c1 [Example 108, (R)-3-(3-(1-((4-methyl-4H-1,2,4-triazol-3-yl)thio)ethyl)phenyl)-1H-indazole] | 1000 to 5000 | 1000 to 5000
C[C@H](Cc1nncn1C)c1cccc(-c2n[nH]c3c(N4CCC(O)CC4)cc(C(F)(F)F)nc23)c1 [Example 109, (R)-1-(3-(3-(1-(4-methyl-4H-1,2,4-triazol-3-yl)propan-2-yl)phenyl)-5-(trifluoromethyl)-1H-pyrazolo[4,3-b]pyridin-7-yl)piperidin-4-ol] | 100 to 1000 | 

Further lines, results first:

IC50 [1] [nM] | IC50 [2] [nM] | SMILES
1000 to 5000 |  | COc1cccc(-c2cnn(-c3cccc([C@H](C)Sc4nncn4C)c3)n2)c1 [Example 76, (S)-4-(3-methoxyphenyl)-2-(3-(1-((4-methyl-4H-1,2,4-triazol-3-yl)thio)ethyl)phenyl)-2H-1,2,3-triazole]
1000 to 5000 |  | C[C@H](Sc1nncn1C)c1cccc(-n2ncc(-c3cccc(Cl)c3)n2)c1 [Example 78, 4-(3-chlorophenyl)-2-[3-[(1S)-1-[(4-methyl-4H-1,2,4-triazol-3-yl)sulfanyl]ethyl]phenyl]-2H-1,2,3-triazole]
1000 to 5000 |  | C[C@H](Sc1nncn1C)c1cccc(-n2cc(-c3cccc(Cl)c3)nn2)c1 [Example 79, 4-(3-chlorophenyl)-1-{3-[(1S)-1-[(4-methyl-4H-1,2,4-triazol-3-yl)sulfanyl]ethyl]phenyl}-1H-1,2,3-triazole]
≥ 5000 | ≥ 5000 | C[C@H](Sc1nncn1C)c1cccc(-n2ncc(-c3ccc(C(=O)O)cc3)n2)c1 [Example 80, (S)-4-(2-(3-(1-(4-methyl-4H-1,2,4-triazol-3-ylthio)ethyl)phenyl)-2H-1,2,3-triazol-4-yl)benzoic acid]
≥ 5000 | ≥ 5000 | C[C@H](Sc1nncn1C)c1cccc(-n2cc(-c3ccc(C(=O)O)cc3)nn2)c1 [Example 81, (S)-4-(1-(3-(1-(4-methyl-4H-1,2,4-triazol-3-ylthio)ethyl)phenyl)-1H-1,2,3-triazol-4-yl)benzoic acid]
≥ 5000 | ≥ 5000 | CNC(=O)c1ccc(-c2cn(-c3cccc([C@H](C)Sc4nncn4C)c3)nn2)cc1 [Example 83, (S)—N-methyl-4-(1-(3-(1-(4-methyl-4H-1,2,4-triazol-3-ylthio)ethyl)phenyl)-1H-1,2,3-triazol-4-yl)benzamide]
1000 to 5000 | 1000 to 5000 | C[C@H](Sc1nncn1C)c1cccc(-n2cc(-c3ccc(C#N)cc3)nn2)c1 [Example 89, (S)-4-(1-(3-(1-(4-methyl-4H-1,2,4-triazol-3-ylthio)ethyl)phenyl)-1H-1,2,3-triazol-4-yl)benzonitrile]
≥ 5000 | ≥ 5000 | C[C@H](Sc1nncn1C)c1cccc(-n2cc(-c3cccc(CO)c3)nn2)c1 [Example 92, (S)-(3-(1-(3-(1-(4-methyl-4H-1,2,4-triazol-3-ylthio)ethyl)phenyl)-1H-1,2,3-triazol-4-yl)phenyl)methanol]
1000 to 5000 | 1000 to 5000 | CNC(=O)c1cccc(-c2cnn(-c3cccc([C@H](C)Sc4nncn4C)c3)n2)c1 [Example 93, (S)—N-methyl-3-(2-(3-(1-(4-methyl-4H-1,2,4-triazol-3-ylthio)ethyl)phenyl)-2H-1,2,3-triazol-4-yl)benzamide]
≥ 5000 | ≥ 5000 | CNC(=O)c1cccc(-c2cn(-c3cccc([C@H](C)Sc4nncn4C)c3)nn2)c1 [Example 94, (S)—N-methyl-3-(1-(3-(1-(4-methyl-4H-1,2,4-triazol-3-ylthio)ethyl)phenyl)-1H-1,2,3-triazol-4-yl)benzamide]
100 to 1000 | 100 to 1000 | C[C@H](Sc1nncn1C)c1cccc(-n2ncc(-c3cccc(C(N)=O)c3)n2)c1 [Example 95, (S)-3-(2-(3-(1-(4-methyl-4H-1,2,4-triazol-3-ylthio)ethyl)phenyl)-2H-1,2,3-triazol-4-yl)benzamide]
≥ 5000 | ≥ 5000 | C[C@@H](Sc1nncn1C)c1cccc(-n2ncc(-c3ccccc3)n2)c1 [Example 100, (R)-2-(3-(1-((4-methyl-4H-1,2,4-triazol-3-yl)thio)ethyl)phenyl)-4-phenyl-2H-1,2,3-triazole]
≥ 5000 | ≥ 5000 | CC(Sc1nncn1C)c1ccnc(-n2ncc(-c3ccccc3)n2)c1 (stereo not drawn) [Example 101, 4-(1-((4-methyl-4H-1,2,4-triazol-3-yl)thio)ethyl)-2-(4-phenyl-2H-1,2,3-triazol-2-yl)pyridine]
1000 to 5000 | 1000 to 5000 | COc1cccc(-c2cc(-c3cccc(C(C)Sc4nncn4C)c3)[nH]n2)c1 (stereo not drawn) [Example 104, 3-((1-(3-(3-(3-methoxyphenyl)-1H-pyrazol-5-yl)phenyl)ethyl)thio)-4-methyl-4H-1,2,4-triazole]
100 to 1000 |  | C[C@H](Sc1nncn1C)c1cccc(-c2n[nH]c3ccccc23)c1 [Example 107, (S)-3-(3-(1-((4-methyl-4H-1,2,4-triazol-3-yl)thio)ethyl)phenyl)-1H-indazole]
